The values below come from publication PMC6272497, “Biological Activities and Cytotoxicity of Diterpenes from Copaifera spp. Oleoresins” (Molecules, 2015).

Entries after “also recorded” stand apart in the source; their conditions may differ.

Usually IC50 stands for the point on the concentration scale where inhibition reaches its midpoint. Usually inhibition stands for how much of the control response was suppressed. Low readings indicate a response near the control, high ones a response far below the control.

The subject of series [1] is TNF-α production. Also on record: method as in PMID 11278990. The settings on record: cited from earlier work.
Series [2] has as its system AGP01 (gastric). Put plainly: Alamar Blue assay, tumoral cells AGP01. The format is cell-based. The following applies: 72 h, 20 µmol/L. Here is the method:
(§1) We also investigated possible cytotoxic effects on tumor cell lines (Table 1). To characterize this activity, the compounds were tested in different tumor cell lines, among which were AGP-01 (gastric), HCT116 (colorectal), MCF07 (breast cancer), NIHOVCAR (ovary), SKAMELL-4 (melanoma), and SF-295 (human glioblastoma), each at a concentration of 20 µM.
(§2) Cytotoxicity assay. The cytotoxicity of diterpene compounds to the murine macrophage cell line J774 was determined by the Alamar Blue method as described by Nakayama et al.. Briefly, adherent cells (5 × 10^3 cells/well) were grown in 96-well tissue culture plates and exposed to substances (2.5 to 10 µg/mL) for 24, 48 and 72 h. After incubation, the Alamar Blue solution (10 μL of 0.4% Alamar Blue (resazurin) in PBS) was added and the cells were incubated for 3 h at 37 °C. Fluorescence was measured (excitation at 545 nm and emission at 595 nm) and expressed as a percentage of the cells in the control after background fluorescence was subtracted. As a positive control of cell death, doxorubicin (5 µg/mL) was used. The assays were performed in triplicate. For the assays with tumoral cells, an Alamar Blue assay was performed using the following cell lines: AGP01—gastric; HCT116—colorectal; MCF07—breast cancer; NIHOVCAR—ovary; SKAMELL4—melanoma; SF295—human glioblastoma, which were seeded in 96-well plates (0.5 × 10^4 cells per well) and incubated in a CO2 atmosphere at 5% and 37 °C. After 24 h, diterpenes at 20 µM were added to each well and incubated for 72 h. Doxorubicin (10 μM) was used as a positive control and DMSO (0.1%) as a negative control. Before the end of the incubation, 10 µL of Alamar Blue (0.02%) was added to each well. The fluorescent signal was monitored using a multiplate reader using a 530–560 nm excitation wavelength and 590 nm emission wavelength. The fluorescent signal generated from the assay was proportional to the number of live cells in the sample, according to the manufacturer.
In general terms: Resazurin is reduced to fluorescent resorufin, in cell work by metabolically active cells.

Series [3] has as its system SF295 (human glioblastoma). The series is described as follows: Alamar Blue assay, tumoral cells SF295. The series is classed as cell-based. The settings on record: 72 h, 20 µmol/L. Here is the method:
as §1, §2

In series [4] the test system is nitric oxide production in J774 macrophages stimulated with LPS. Put plainly: NO production assay (Griess) in LPS-stimulated J774 cells. The format is cell-based, murine. The following applies: Mus musculus; J774, LPS 1 µg/mL, 24 h; read-out: inhibition of NO production IC50. The protocol: Our study evaluated the effects of diterpene compounds on the production of nitric oxide in the murine macrophage cell line J774 stimulated with LPS (Figure 2D). NO^• levels were measured by the Greiss method. […] Similar results for kaurenoic acid were observed by Choi et al. […] Figure 2 Effect of the isolated diterpenic acids on nitric oxide (NO^•) and cytokine production in lipopolysaccharide-stimulated J774 cells. (A) TNF-α, (B) IL-6 and (C) IL-10 and (D) NO^•. […] The nitrite and cytokines values are the mean ± S.D. from three independent experiments. Indomethacin was used as a standard. Statistical analysis was performed using the Holm-Sidak multiple comparison. * p < 0.05 when compared to control stimulated with LPS. (1) 3-hydroxy-copalic acid, (2) kaurenoic acid, (3) 3-acetoxy-copalic acid, (4) kolavic acid 15-methyl ester, (5) copalic acid and (6) […]. NO^• production by J774 cells was assayed by measuring the accumulation of nitrite in the culture medium using a Griess reaction. Briefly, after incubation of the cells (1 × 10^6 cells/mL) with diterpene compounds in different concentrations from 6.25 to 100 μM, cells were incubated for 24 h with LPS (1 μg/mL), at 37 °C in a 5% CO2 incubator. Nitric oxide was measured as NO2 in culture supernatant by reaction with Griess reagent. Absorbance of the reaction product was determined at 560 nm using a microplate reader (DTX 800, Beckman). Sodium nitrite was used as a standard to calculate nitrite concentrations.
A general note: The Griess reaction detects nitrite, a stable product of nitric oxide.

The test system of series [5] is IL-10 production. Put plainly: IL-10 production in LPS-stimulated J774 cells (CBA). The format is cell-based, murine. The protocol:
(§3) Figure 2 Effect of the isolated diterpenic acids on nitric oxide (NO^•) and cytokine production in lipopolysaccharide-stimulated J774 cells. (A) TNF-α, (B) IL-6 and (C) IL-10 and (D) NO^•. Production of NO^• was assayed in culture supernatants of macrophages stimulated with LPS (1 µg/mL) for 24 h in the presence of the four compounds (25 µg/mL to cytokines and 50 µg/mL to NO^•). The nitrite and cytokines values are the mean ± S.D. from three independent experiments. Indomethacin was used as a standard. Statistical analysis was performed using the Holm-Sidak multiple comparison. * p < 0.05 when compared to control stimulated with LPS. (1) 3-hydroxy-copalic acid, (2) kaurenoic acid, (3) 3-acetoxy-copalic acid, (4) kolavic acid 15-methyl ester, (5) copalic acid and (6) hardwickiic acid.
Macrophage cells (1 × 10^6 cells/mL) were incubated with different concentrations of diterpene compounds (12.5 to 50 μM), and then stimulated with 1 μg/mL of LPS. The culture supernatants were collected after 24 h of LPS stimulation. The levels of cytokines in the culture media were measured by flow cytometry (BD Cytometric Bead Array—CBA—Mouse Inflammation kit) according to the manufacturer’s instructions.

Series [6] deals with Lipoxygenase (LOX) (Glycine max, UniProt P08170). The series is described as follows: Lipoxygenase inhibition. The series is classed as biochemical. Here is the method: Figure 1 Tyrosinase and lipoxygenase activities of the isolated diterpenes from Copaifera sp. […] 1. 3-hydroxy-copalic acid, 2. kaurenoic acid, 3. 3-acetoxy-copalic acid, 4. kolavic acid15-methyl ester, 5. copalic acid, and 6. hardwickiic acid. Each value is the mean ± S.E. of three independent experiments. Statistical analysis was performed using Holm-Sidak multiple comparisons. * p < 0.05 compared with the negative control.
Lipoxygenase (LOX), sequence (P08170 whole entry): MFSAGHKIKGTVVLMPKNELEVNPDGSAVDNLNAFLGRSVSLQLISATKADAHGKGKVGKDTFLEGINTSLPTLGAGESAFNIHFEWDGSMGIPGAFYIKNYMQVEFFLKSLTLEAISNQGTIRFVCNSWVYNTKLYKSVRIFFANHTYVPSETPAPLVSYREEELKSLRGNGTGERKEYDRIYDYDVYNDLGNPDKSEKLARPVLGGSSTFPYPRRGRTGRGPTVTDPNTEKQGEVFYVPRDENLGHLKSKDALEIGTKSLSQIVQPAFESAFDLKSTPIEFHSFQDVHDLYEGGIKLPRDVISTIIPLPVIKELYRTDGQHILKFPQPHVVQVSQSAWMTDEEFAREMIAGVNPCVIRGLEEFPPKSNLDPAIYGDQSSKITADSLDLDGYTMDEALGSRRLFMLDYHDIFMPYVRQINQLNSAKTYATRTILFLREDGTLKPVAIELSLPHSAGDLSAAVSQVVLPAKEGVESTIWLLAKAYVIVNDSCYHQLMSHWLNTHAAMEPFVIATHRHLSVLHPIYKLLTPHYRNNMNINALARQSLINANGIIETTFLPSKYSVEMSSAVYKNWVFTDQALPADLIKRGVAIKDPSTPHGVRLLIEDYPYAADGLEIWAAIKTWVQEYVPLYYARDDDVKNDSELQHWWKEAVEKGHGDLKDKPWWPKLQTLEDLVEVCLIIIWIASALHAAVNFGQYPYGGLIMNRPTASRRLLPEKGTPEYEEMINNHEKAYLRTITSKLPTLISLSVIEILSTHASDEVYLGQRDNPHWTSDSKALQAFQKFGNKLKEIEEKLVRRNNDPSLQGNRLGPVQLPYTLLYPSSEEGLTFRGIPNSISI

Series [7] deals with HCT-116 (colorectal). Put plainly: Alamar Blue assay, tumoral cells HCT-116. The format is cell-based. The following applies: 72 h, 20 µmol/L. Here is the method: as §1, §2
In series [8] the test system is NIHOVCAR (ovary). Put plainly: Alamar Blue assay, tumoral cells NIHOVCAR
The series is classed as cell-based. The following applies: 72 h, 20 µmol/L. The protocol:
as §1, §2

Series [9] relates to IL-6 production. The series is described as follows: IL-6 production in LPS-stimulated J774 cells (CBA). The format is cell-based, murine. The settings on record: for inhibition of IL-6 production (words): LPS-stimulated J774; for inhibition at 25 µM: Mus musculus, J774, 25 µM (abstract). Here is the method:
as §3, with “Production of NO^• was assayed in culture supernatants of macrophages stimulated with LPS (1 µg/mL) for 24 h in the presence of the four compounds (25 µg/mL to cytokines and 50 µg/mL to NO^•).” left out
[…] The culture supernatants were collected after 24 h of LPS stimulation. The levels of cytokines in the culture media were measured by flow cytometry (BD Cytometric Bead Array—CBA—Mouse Inflammation kit) according to the manufacturer’s instructions.

Series [10] deals with MCF7 (breast cancer). Put plainly: Alamar Blue assay, tumoral cells MCF7. The series is classed as cell-based. The following applies: 72 h, 20 µmol/L. Here is the method: as §1, §2
For series [11], the system named is SKMELL28 (melanoma). Put plainly: Alamar Blue assay, tumoral cells SKMELL28. The format is cell-based. The following applies: 72 h, 20 µmol/L. Here is the method: as §1, §2
The subject of series [12] is MCP-1 production in RAW 264.7 murine macrophages. Also on record: method as in PMID 18267111. The following applies: 20 µM to 50 µM; cited from earlier work.
Series [13] relates to TNF-α production in RAW 264.7 murine macrophages. Set-up: method as in PMID 18267111. The following applies: 20 µM to 50 µM; cited from earlier work.
The subject of series [14] is HCT -8 cells (colon cancer). Set-up: method as in PMID 12165328. The following applies: single concentration of 78 µM; cited from earlier work.
The test system of series [15] is MCF -7 (breast cancer). Set-up: method as in PMID 12165328. The settings on record: single concentration of 78 µM; cited from earlier work.
In series [16] the test system is CEM (leukemia). Also on record: method as in PMID 12165328. The settings on record: single concentration of 78 µM; cited from earlier work.
For series [17], the system named is TNF-α production and expression. Set-up: method as in PMID 18313400. The settings on record: 1 to 20 mg/mL; kaurenoic acid from Helianthus annuus L.; cited from earlier work.
Series [18] has as its system NO production in RAW 264.7 macrophage stimulated by LPS. Set-up: method as in PMID 16280009. The following applies: RAW 264.7, LPS; kaurenoic acid from Aralia continentalis; read-out: inhibition of NO production IC50; cited from earlier work.
The subject of series [19] is erythrocyte. The series is described as follows: Hemolysis test.
Experimental: The assay for the characterization of hemolytic activity aimed to evaluate the potential of diterpenes on lysis of the cell membrane.
Blood was collected in heparinized-tubes from Wistar rats, and washed three times with saline solution (NaCl 0.85% + CaCl2 10 mM) by centrifugation at 700 g for 10 min. The pellet of erythrocyte was re-suspended in saline solution for preparation of erythrocyte suspension −2% (SE). A total of 100 µL of the samples of diluted diterpenes was added to 96-well microplates in different concentrations (6.25 to 800 µM); 100 µL of SE was then added; and the samples were incubated for 60 min at 37 °C under constant agitation. The release of hemoglobin was determined after centrifugation (700 g for 10 min) by photometric analysis of the supernatant at 540 nm. Complete hemolysis was achieved using 0.2% Triton X-100 yielding the 100% control value.
The mark [20] stands for this setting: LPS-stimulated J774, 12.5 to 50 µM.

As to foliol, in series [1], the “inhibition of TNF-α production” value is “showed inhibitory activity on the production of TNF-α”.

Consider linearol acid, for which the “inhibition of TNF-α production” value in series [1] is reported as “showed inhibitory activity on the production of TNF-α”.

`COC(=O)/C=C(/C)CC[C@@]1(C)[C@H](C)CC[C@@]2(C)C(C(=O)O)=CCC[C@H]12` [kolavic acid 15-methyl ester, Kolavic acid-15-metyl ester]: the “Viability inhibition (%) AGP01” value in series [2] was found to be 17.4 ± 6.7%. Further, in [3], the “Viability inhibition (%) SF295” value is at most 0.01%. The IC50 in series [4] turned out to be 81.6 ± 2.8 µM. Further, the “IL-10 production (words)” value in series [5] (setting [20]) is on record as “did not induce the production of IL-10”. For the same compound, the lipoxygenase inhibition in series [6] (200 µM) was 89.5% ± 1.2%. The “lipoxygenase inhibition activity” value in series [6] (conclusions, compared to standard quercetin) is reported as “high lipoxigenase inhibition activity”. In series [7], the “Viability inhibition (%) HCT-116” value was at most 0.01%. For the same compound, the “Viability inhibition (%) NIHOVCAR” value in [8] is recorded as at most 0.01%. In addition, the “inhibition of IL-6 production (words)” value in [9] (listed as kolavic-15-methyl ester) is “inhibited the production of IL-6”. Also, the inhibition at 25 µM in series [9] was found to be 17.3%. The “Viability inhibition (%) MCF7” value in series [10] is at most 0.01%. Moreover, the “Viability inhibition (%) SKMELL28” value in series [11] was at most 0.01%.

For the compound `CC(C)c1ccc2c(c1)CC[C@H]1[C@](C)(C(=O)O)CCC[C@]21C` [Dehydroabietic acid], the “suppression of MCP-1 production” value in series [12] is “suppresses production”. Moreover, the “suppression of TNF-α production” value in series [13] was “suppresses production”.

In the case of `C=C1C[C@@]23CC[C@H]4[C@@](C)(CCC[C@@]4(C)C(=O)O)[C@@H]2CC[C@@H]1C3` [kaurenoic acid], the “Viability inhibition (%) AGP01” value in [2] (listed as Kaurenoic Acid) came to 28.1 ± 4.3%. Further, the “inhibition of HCT-8 tumor cells” value in series [14] was 45%. Besides, the results for the “Viability inhibition (%) SF295” value in [3] (listed as Kaurenoic Acid) and in series [3] (listed as kaurenoic) were 28.0 ± 6.5% and “around 20%”, respectively. The IC50 is 61.2 ± 4.2 µM in [4] and 51.7 ± 2.4 µM in [18]. Further, the “inhibition of MCF-7 tumor cells” value in series [15] is on record as 45%. Besides, the “IL-10 production (words)” value is recorded as “induced the production of IL-10” in series [5] (12.5 µM and 25 µM); “this induction decreased” in [5] (50 µM); “increased IL-10 production; also recorded: induced IL-10 production; also recorded: induced production of interleukin-10” in [5] (setting [20]). Moreover, the “inhibition of CEM tumor cells” value in series [16] is given as 95%. In addition, the “inhibition of TNF-α production and expression” value in series [17] is “inhibitory activity on the production and expression of TNF-α”. Besides, the “Viability inhibition (%) HCT-116” value in [7] (listed as Kaurenoic Acid) was 0.27 ± 4.3%. Besides, the hemolytic activity in series [19] (100 µM (abstract)) and in series [19] (100 mM (so in the source)) was 61.7% each time. Further, the “Viability inhibition (%) NIHOVCAR” value in series [8] (listed as Kaurenoic Acid) is at most 0.01%. The “inhibition of IL-6 production (words)” value is “inhibited the production of IL-6” in [9] (listed as Kaurenoic) and “inhibited IL-6 production” in [9] (listed as kaurenoic). In addition, the inhibition at 25 µM in series [9] was 11.2%. Further, in series [10], the “Viability inhibition (%) MCF7” value is on record as at most 0.01%. The “Viability inhibition (%) SKMELL28” value in series [11] is at most 0.01%.
